Experimental data from patent US4508716A, “[1,2]-Fused 1,4-benzodiazepine compounds, process for their preparation and compositions containing them” (Kali-Chemie Pharma GmbH, priority 1981, dated 1985).

Assays:
hexobarbital anaesthesia = test: Test for the central nervous system sedating properties: prolongation of the duration of hexobarbital anaesthesia in mice; type: in vivo; conditions: male mice, 60 min before hexobarbital sodium 50 mg/kg i.v.
[1] = test system: apomorphine-induced climbing behaviour; test: Test for neuroleptic properties: inhibition of apomorphine-induced climbing behaviour in mice; type: in vivo; conditions: Mus musculus, male NMR1 mice, 60 min before apomorphine 1.0 mg/kg s.c.; for inhibition in vivo at 2.2 mg/kg: dose 2.2 mg/kg peroral
Method: 2. Test for neuroleptic properties
Determination of the effective dose for inhibiting apomorphine-induced climbing behaviour in mice (modified method of P. Protais et al., Psychopharmacology 50, (1976), 1-6).
Groups each containing 10 male NMR1 mice of 18-24 g. body weight are used per test dose. The test substance is administered perorally, as a suspension in […] "Tylose" solution.
After 60 minutes, the animals are each injected subcutaneously with 1.0 mg./kg. of apomorphine, and immediately after the injection, each animal is placed under a vertical wire mesh cylinder (diameter 13 cm., height 16 cm., closed at the top). After 10, 20 and 30 minutes, the climbing behaviour of the animals is evaluated in accordance with the following point system:
0 points=no paw on the mesh
1 point=one or two paws touching the mesh
2 points=three or all paws gripping the mesh, or climbing
For each test group, the sum of the points (maximum number of points=20) at the three test times is determined, and the average of the 3 values is taken for calculating the inhibition of climbing behaviour effected by the test substance.
In the table which follows, the inhibiting action is given in % inhibition in comparison with the climbing behaviour of a control group which was not treated with the test substance.

[2] = Acute toxicity (acute 7-day toxicity following a single oral administration, LD50 by probit analysis); conditions: mouse, in vivo, NMR1 mice
Method: The acute 7-day toxicity is determined following a single oral administration to white, fasting NMR1 mice, and the LD50 value is calculated by electronic data processing, by probit analysis.

CN1CCN2c3ccccc3C(c3cccs3)=NCC2C1 (centres unmarked) [Example 4, 1,2,3,4,4a,5-Hexahydro-3-methyl-7-(2-thienyl)-pyrazino[1,2-a][1,4]benzodiazepine]
Prolongation of the duration of hexobarbital anaesthesia, prolongation factor (hexobarbital anaesthesia; dose ≤13.8 mg/kg peroral): 0
inhibition in vivo at 2.9 mg/kg ([1]; dose 2.9 mg/kg peroral): 70%
LD50 at 168 h [2]: ~440 mg/kg

CN1CCN2c3ccc(Cl)cc3C(c3cccn3C)=NCC2C1 (centres unmarked) [Example 9, 1,2,3,4,4a,5-Hexahydro-9-chloro-3-methyl-7-[2-(N-methyl)-pyrrolyl]-pyrazino[1,2-a][1,4]benzodiazepine]
Prolongation of the duration of hexobarbital anaesthesia, prolongation factor (hexobarbital anaesthesia; dose ≤41.5 mg/kg peroral): 0
inhibition in vivo at 4.2 mg/kg ([1]; dose 4.2 mg/kg peroral): 48%
LD50 at 168 h [2]: > 893 mg/kg

Cc1ccc2c(c1)C(c1ccco1)=NCC1CN(C)CCN21 (centres unmarked) [Example 10a, 1,2,3,4,4a,5-Hexahydro-3,9-dimethyl-7-(2-furyl)-pyrazino[1,2-a][1,4]benzodiazepine]
Prolongation of the duration of hexobarbital anaesthesia, prolongation factor (hexobarbital anaesthesia; dose ≤42.2 mg/kg peroral): 0
inhibition in vivo at 13.3 mg/kg ([1]; dose 13.3 mg/kg peroral): 31%
LD50 at 168 h [2]: > 422 mg/kg

Cc1ccc2c(c1)C(c1ccc(Br)s1)=NCC1COCCN21 (centres unmarked) [Example 22]
Prolongation of the duration of hexobarbital anaesthesia, prolongation factor (hexobarbital anaesthesia; dose 37.7 mg/kg peroral): 1.5
inhibition in vivo at 8.1 mg/kg ([1]; dose 8.1 mg/kg peroral): 50%
LD50 at 168 h [2]: > 811 mg/kg

Cc1ccc2c(c1)C(c1ccco1)=[N+]([O-])CC1CN(C)CCN21 (centres unmarked) [Example 35]
Prolongation of the duration of hexobarbital anaesthesia, prolongation factor (hexobarbital anaesthesia; dose 9.8 mg/kg peroral): 2.1
inhibition in vivo at 9.8 mg/kg ([1]; dose 9.8 mg/kg peroral): 35%
LD50 at 168 h [2]: > 311 mg/kg

COc1ccc2c(c1)N1CCN(C)CC1C[N+]([O-])=C2c1ccco1 (centres unmarked) [Example 36]
Prolongation of the duration of hexobarbital anaesthesia, prolongation factor (hexobarbital anaesthesia; dose ≤70.4 mg/kg peroral): 0
inhibition in vivo at 22.3 mg/kg ([1]; dose 22.3 mg/kg peroral): 34%
LD50 at 168 h [2]: > 704 mg/kg

CCOc1ccc2c(c1)C(c1ccn(C)c1)=NCC1CN(C)CCN21 (centres unmarked) [Example 41]
Prolongation of the duration of hexobarbital anaesthesia, prolongation factor (hexobarbital anaesthesia; dose 43.8 mg/kg peroral): 1.6
inhibition in vivo at 13.9 mg/kg ([1]; dose 13.9 mg/kg peroral): 14%

COc1ccc2c(c1)N1CCN(C)CC1CN=C2c1cccs1 (centres unmarked) [Example 51]
Prolongation of the duration of hexobarbital anaesthesia, prolongation factor (hexobarbital anaesthesia; dose 22.3 mg/kg peroral): 1.9
inhibition in vivo at 2.2 mg/kg [1]: 57%
LD50 at 168 h [2]: > 704 mg/kg

CN1CCN2c3cc(F)ccc3C(c3cccs3)=NCC2C1 (centres unmarked) [Example 55]
Prolongation of the duration of hexobarbital anaesthesia, prolongation factor (hexobarbital anaesthesia; dose 6.8 mg/kg peroral): 1.3
inhibition in vivo at 0.2 mg/kg ([1]; dose 0.2 mg/kg peroral): 47%
LD50 at 168 h [2]: > 315 mg/kg

Cc1cc(C)c2c(c1)N1CCOCC1CN=C2c1cccs1 (centres unmarked) [Example 63]
Prolongation of the duration of hexobarbital anaesthesia, prolongation factor (hexobarbital anaesthesia; dose 67.2 mg/kg peroral): 1.5
inhibition in vivo at 21.3 mg/kg ([1]; dose 21.3 mg/kg peroral): 11%

Cc1cc(C)c2c(c1)N1CCSCC1CN=C2c1cccs1 (centres unmarked) [Example 65]
inhibition in vivo at 22.4 mg/kg ([1]; dose 22.4 mg/kg peroral): 12%

CCN1CCN2c3ccccc3C(c3cccs3)=NCC2C1 (centres unmarked) [Example 69]
Prolongation of the duration of hexobarbital anaesthesia, prolongation factor (hexobarbital anaesthesia; dose ≤28.0 mg/kg peroral): 0
inhibition in vivo at 0.7 mg/kg ([1]; dose 0.7 mg/kg peroral): 71%
LD50 at 168 h [2]: ~420 mg/kg

C=CCN1CCN2c3ccccc3C(c3cccs3)=NCC2C1 (centres unmarked) [Example 70]
Prolongation of the duration of hexobarbital anaesthesia, prolongation factor (hexobarbital anaesthesia; dose ≤39.6 mg/kg peroral): 0
inhibition in vivo at 2.2 mg/kg [1]: 36%
LD50 at 168 h [2]: ~790 mg/kg

CC(C)CCN1CCN2c3ccccc3C(c3cccs3)=NCC2C1 (centres unmarked) [Example 74]
Prolongation of the duration of hexobarbital anaesthesia, prolongation factor (hexobarbital anaesthesia; dose 33.0 mg/kg peroral): 2.0
inhibition in vivo at 3.3 mg/kg ([1]; dose 3.3 mg/kg peroral): 70%
LD50 at 168 h [2]: ~730 mg/kg
